Key:
Rattus norvegicus [1] = assay: Oral antiallergic activity in rat passive foot anaphylaxis (PFA) assay as percent change in volume of foot edema at a dose 31.6 mg/kg compared to -63% of aminophylline at 100 mg/kg; format: functional
Rattus norvegicus [2] = assay: Oral antiallergic activity in rat passive foot anaphylaxis (PFA) assay as percent change in volume of foot edema at a dose 31.6 mg/kg compared to -61% of aminophylline at 100 mg/kg; format: functional
Rattus norvegicus [3] = assay: Oral antiallergic activity in rat passive foot anaphylaxis (PFA) assay as percent change in volume of foot edema at a dose 31.6 mg/kg compared to -66% of aminophylline at 100 mg/kg; format: functional
Rattus norvegicus [4] = assay: Oral antiallergic activity in rat passive foot anaphylaxis (PFA) assay as percent change in volume of foot edema at a dose 10 mg/kg compared to -69% of aminophylline at 100 mg/kg; format: functional
Rattus norvegicus [5] = assay: Oral antiallergic activity in rat passive foot anaphylaxis (PFA) assay as percent change in volume of foot edema at a dose 31.6 mg/kg compared to -65% of aminophylline at 100 mg/kg; format: functional
Rattus norvegicus [6] = assay: Oral antiallergic activity in rat passive foot anaphylaxis (PFA) assay as percent change in volume of foot edema at a dose 31.6 mg/kg compared to -81% of aminophylline at 100 mg/kg; format: functional
Rattus norvegicus [7] = assay: Oral antiallergic activity in rat passive foot anaphylaxis (PFA) assay as percent change in volume of foot edema at a dose 31.6 mg/kg compared to -80% of aminophylline at 100 mg/kg; format: functional
Rattus norvegicus [8] = assay: Oral antiallergic activity in rat passive foot anaphylaxis (PFA) assay as percent change in volume of foot edema at a dose 31.6 mg/kg compared to -79% of aminophylline at 100 mg/kg; format: functional
Rattus norvegicus [9] = assay: Oral antiallergic activity in rat passive foot anaphylaxis (PFA) assay as percent change in volume of foot edema at a dose 31.6 mg/kg compared to -90% of aminophylline at 100 mg/kg; format: functional
Rattus norvegicus [10] = assay: Oral antiallergic activity in rat passive foot anaphylaxis (PFA) assay as percent change in volume of foot edema at a dose 31.6 mg/kg compared to -73% of aminophylline at 100 mg/kg; format: functional
Rattus norvegicus [11] = assay: Oral antiallergic activity in rat passive foot anaphylaxis (PFA) assay as percent change in volume of foot edema at a dose 31.6 mg/kg compared to -62% of aminophylline at 100 mg/kg; format: functional
Rattus norvegicus [12] = assay: Oral antiallergic activity in rat passive foot anaphylaxis (PFA) assay as percent change in volume of foot edema at a dose 31.6 mg/kg compared to -69% of aminophylline at 100 mg/kg; format: functional
Rattus norvegicus [13] = assay: Oral antiallergic activity in rat passive foot anaphylaxis (PFA) assay as percent change in volume of foot edema at a dose 31.6 mg/kg compared to -74% of aminophylline at 100 mg/kg; format: functional
Rattus norvegicus [14] = assay: Oral antiallergic activity in rat passive foot anaphylaxis (PFA) assay as percent change in volume of foot edema at a dose 31.6 mg/kg compared to -60% of aminophylline at 100 mg/kg; format: functional
Rattus norvegicus [15] = assay: Oral antiallergic activity in rat passive foot anaphylaxis (PFA) assay as percent change in volume of foot edema at a dose 31.6 mg/kg compared to -68% of aminophylline at 100 mg/kg; format: functional
Rattus norvegicus [16] = assay: Oral antiallergic activity in rat passive foot anaphylaxis (PFA) assay as percent change in volume of foot edema at a dose 31.6 mg/kg compared to -64% of aminophylline at 100 mg/kg; format: functional
Rattus norvegicus [17] = assay: Oral antiallergic activity in rat passive foot anaphylaxis (PFA) assay as percent change in volume of foot edema at a dose 31.6 mg/kg compared to -78% of aminophylline at 100 mg/kg; format: functional
Rattus norvegicus [18] = assay: Oral antiallergic activity in rat passive foot anaphylaxis (PFA) assay as percent change in volume of foot edema at a dose 10 mg/kg compared to -77% of aminophylline at 100 mg/kg; format: functional
Rattus norvegicus [19] = assay: Oral antiallergic activity in rat passive foot anaphylaxis (PFA) assay as percent change in volume of foot edema at a dose 31.6 mg/kg compared to -67% of aminophylline at 100 mg/kg; format: functional
Rattus norvegicus [20] = assay: Oral antiallergic activity in rat passive foot anaphylaxis (PFA) assay as percent change in volume of foot edema at a dose 31.6 mg/kg compared to -77% of aminophylline at 100 mg/kg; format: functional
Cavia porcellus [21] = assay: Oral antiallergic activity in the Guinea Pig Anaphylaxis (GPA) at the dose of 31.6 mg/kg; 4 guinea pigs were challenged with the antigen
Rattus norvegicus [22] = assay: Oral antiallergic activity in rat passive foot anaphylaxis (PFA) assay as percent change in volume of foot edema at a dose 31.6 mg/kg compared to -50% of aminophylline at 100 mg/kg; format: functional
Rattus norvegicus [23] = assay: Oral antiallergic activity in rat passive foot anaphylaxis (PFA) assay as percent change in volume of foot edema at a dose 31.6 mg/kg compared to -71% of aminophylline at 100 mg/kg; format: functional
Rattus norvegicus [24] = assay: Oral antiallergic activity in rat passive foot anaphylaxis (PFA) assay as percent change in volume of foot edema at a dose 31.6 mg/kg compared to -58% of aminophylline at 100 mg/kg; format: functional
Cavia porcellus [25] = assay: Oral antiallergic activity in the Guinea Pig Anaphylaxis (GPA) at the dose of 200 mg/kg; 3 guinea pigs were challenged with the antigen; format: functional
Rattus norvegicus [26] = assay: Oral antiallergic activity in rat passive foot anaphylaxis (PFA) assay as percent change in volume of foot edema at a dose 10 mg/kg compared to -62% of aminophylline at 100 mg/kg; format: functional
Cavia porcellus [27] = assay: Oral antiallergic activity in the Guinea Pig Anaphylaxis (GPA) at the dose of 31.6 mg/kg; 6 guinea pigs were challenged with the antigen; format: functional
Rattus norvegicus [28] = assay: Oral antiallergic activity in rat passive foot anaphylaxis (PFA) assay as percent change in volume of foot edema at a dose 31.6 mg/kg compared to -76% of aminophylline at 100 mg/kg; format: functional
Rattus norvegicus [29] = assay: Oral antiallergic activity in rat passive foot anaphylaxis (PFA) assay as percent change in volume of foot edema at a dose 3.16 mg/kg compared to -84% of aminophylline at 100 mg/kg
Cavia porcellus [30] = assay: Oral antiallergic activity in the Guinea Pig Anaphylaxis (GPA) at the dose of 10 mg/kg; 4 guinea pigs were challenged with the antigen
Rattus norvegicus [31] = assay: Oral antiallergic activity in rat passive foot anaphylaxis (PFA) assay as percent change in volume of foot edema at a dose 10 mg/kg compared to -76% of aminophylline at 100 mg/kg; format: functional

CN(CCNC(=O)N1CCN(c2ccccc2)CC1)c1ccccc1
Change (Rattus norvegicus [1]): -41%

CN(C)CCNC(=O)N1CCN(c2ccc(Br)cc2)CC1
Change (Rattus norvegicus [2]): -31%

CN(C)CCNC(=O)N1CCN(C(c2ccccc2)c2ccccc2)CC1
Change (Rattus norvegicus [3]): -30%

CN(C)CCNC(=O)N1CCN(c2cccc(C(F)(F)F)c2)CC1
Change (Rattus norvegicus [2]): -18%

CN(C)CCNC(=O)N1CCN(c2ccccn2)CC1
Change (Rattus norvegicus [4]): -13% | Change (Rattus norvegicus [5]): -54%

CN1CCN(CCCNC(=O)N2CCN(c3ccccc3)CC2)CC1
Change (Rattus norvegicus [6]): -23%

CN(C)CCNC(=O)N1CCN(c2ccc(C#N)cc2)CC1
Change (Rattus norvegicus [7]): -31%

CN(C)CCNC(=O)N(C)CCN(C)c1ccccc1
Change (Rattus norvegicus [8]): -23%

CN(C)CCNC(=O)N1CCN(c2ccccc2)CC1
Change (Rattus norvegicus [9]): -68% | Change (Rattus norvegicus [4]): -22%

CN(C)CCNC(=O)N1CCN(Cc2ccccc2)CC1
Change (Rattus norvegicus [10]): -10%

COc1cc(N2CCN(C(=O)NCCN(C)C)CC2)cc(OC)c1OC
Change (Rattus norvegicus [11]): 9%

O=C(NCCCN1CCOCC1)N1CCN(c2ccccc2)CC1
Change (Rattus norvegicus [12]): -28%

COc1ccccc1N1CCN(C(=O)NCCN(C)C)CC1
Change (Rattus norvegicus [13]): -21%

CN1CCN(CCNC(=O)N2CCN(c3ccccc3)CC2)CC1
Change (Rattus norvegicus [1]): -7%

Cc1ccc(N2CCN(C(=O)NCCN(C)C)CC2)cc1
Change (Rattus norvegicus [5]): -46%

CN(C)CCNC(=O)N1CCN(c2ccc(N)cc2)CC1
Change (Rattus norvegicus [10]): -22%

CN(C)CCN(C)C(=O)N1CCN(c2ccccc2)CC1
Change (Rattus norvegicus [5]): -38%

CCN(CC)CCNC(=O)N1CCN(c2ccccc2)CC1
Change (Rattus norvegicus [14]): -47%

O=C(NCCN1CCCC1)N1CCN(c2ccccc2)CC1
Change (Rattus norvegicus [15]): -45%

CN(C)CCNC(=O)N1CCN(c2cccc(F)c2)CC1
Change (Rattus norvegicus [16]): -31%

COc1ccc(N2CCN(C(=O)NCCN(C)C)CC2)cc1
Change (Rattus norvegicus [4]): -29% | Change (Rattus norvegicus [5]): -49%

CCOC(=O)c1ccc(N2CCN(C(=O)NCCN(C)C)CC2)cc1
Change (Rattus norvegicus [17]): -5%

CN(C)CCNC(=O)N1CCN(c2cccc(Cl)c2)CC1
Change (Rattus norvegicus [18]): -32% | Change (Rattus norvegicus [19]): -78%

CCN1CCCC(NC(=O)N2CCN(c3ccccc3)CC2)C1 (configuration not stated)
Change (Rattus norvegicus [6]): -58%

CN(C)CCNC(=O)N1CCN(c2ccc(N(C)C)cc2)CC1
Change (Rattus norvegicus [20]): -29%

CC(=O)Nc1ccc(N2CCN(C(=O)NCCN(C)C)CC2)cc1
Change (Rattus norvegicus [13]): 5%

CN(C)CCOC(c1ccccc1)c1ccccc1 [DIPHENHYDRAMINE]
No. of guinea pigs protected (Cavia porcellus [21]): 1

O=C(NCCN1CCCCC1)N1CCN(c2ccccc2)CC1
Change (Rattus norvegicus [15]): -49%

CN(C)CCNC(=O)N1CCN(c2ccc(Cl)c(Cl)c2)CC1
Change (Rattus norvegicus [22]): -17%

CC(=O)c1ccc(N2CCN(C(=O)NCCN(C)C)CC2)cc1
Change (Rattus norvegicus [23]): -25%

O=C(NCCc1ccccn1)N1CCN(c2ccccc2)CC1
Change (Rattus norvegicus [13]): -3%

O=C(N1CCN(c2ccccc2)CC1)N1CCN(c2ccccc2)CC1
Change (Rattus norvegicus [12]): -10%

CN(C)CCCNC(=O)N1CCN(c2ccccc2)CC1
Change (Rattus norvegicus [13]): -13%

CN(C)CCNC(=O)N1CCN(c2ccc([N+](=O)[O-])cc2)CC1
Change (Rattus norvegicus [24]): -26%

CN1CCN(C(=O)N2CCN(c3ccccc3)CC2)CC1
Change (Rattus norvegicus [15]): -7%

COc1ccc(N2CCN(C(=O)NCCN(C)C)CC2)cc1OC
Change (Rattus norvegicus [1]): -16%

CN(C)CCNC(=O)N1CCN(c2ccc(C(N)=O)cc2)CC1
Change (Rattus norvegicus [7]): 0%

CN(C)CCNC(=O)N1CCN(c2ccccc2F)CC1
Change (Rattus norvegicus [15]): -37%

CCN(CC)C(=O)N1CCN(C)CC1 [DIETHYLCARBAMAZINE]
No. of guinea pigs protected (Cavia porcellus [25]): 0

NC(=O)N1CCN(c2ccccc2)CC1
Change (Rattus norvegicus [13]): 10%

CN(C)CCNC(=O)N1CCN(c2ccc(Cl)cc2)CC1
Change (Rattus norvegicus [26]): -48% | Change (Rattus norvegicus [5]): -61% | No. of guinea pigs protected (Cavia porcellus [21]): 0 | Change (Rattus norvegicus [11]): 27%

CN(C)CCNC(=O)N1CCN(C(=O)c2ccccc2)CC1
Change (Rattus norvegicus [23]): -4%

Cn1c(=O)c2[nH]cnc2n(C)c1=O.Cn1c(=O)c2[nH]cnc2n(C)c1=O.NCCN [AMINOPHYLLINE]
No. of guinea pigs protected (Cavia porcellus [27]): 4

O=C(NCCN1CCCCCC1)N1CCN(c2ccccc2)CC1
Change (Rattus norvegicus [28]): -47%

O=C(NCCN1CCOCC1)N1CCN(c2ccccc2)CC1
Change (Rattus norvegicus [13]): 10%

CN(C)CCNC(=O)N1CCN(c2ccc(F)cc2)CC1
Change (Rattus norvegicus [29]): -35% | No. of guinea pigs protected (Cavia porcellus [30]): 1 | Change (Rattus norvegicus [19]): -87% | Change (Rattus norvegicus [31]): -63%

COc1cccc(N2CCN(C(=O)NCCN(C)C)CC2)c1
Change (Rattus norvegicus [26]): -36% | Change (Rattus norvegicus [5]): -67%

CN(C)CCNC(=O)N1CCN(c2ccccc2Cl)CC1
Change (Rattus norvegicus [4]): -16% | Change (Rattus norvegicus [5]): -53%

CN(C)C(=O)N1CCN(c2ccccc2)CC1
Change (Rattus norvegicus [23]): -24%

CN(CCNC(=O)N1CCN(c2ccccc2)CC1)Cc1ccccc1
Change (Rattus norvegicus [22]): -35%
